Test results: patent US5300499A, “5-substituted 3-thiophene sulfonamides as antiglaucoma agents” (Allergan, Inc., priority 1992, dated 1994)
Where “and” joins values, the source holds several entries; their conditions need not be identical. Identical values can stand only once.

Target: T1, pure CA11 enzyme from human erythrocyte (Homo sapiens, UniProt P00918)
T1 construct: pure CA11 enzyme from human erythrocyte; from tissue; host or cells: human erythrocyte
Experiment: Carbonic anhydrase activity assay, micromethod of Maren
Assay type: biochemical
Conditions: concentration that lowers the enzyme activity to half; 0°-4° C.; phenol red endpoint, pH 9.9 to 6.8
Description: Carbonic anhydrase activity was assayed according to the micromethod of Maren (J. Pharmacol. Exptl. Therap., 130, 26-29, 1960). All solutions and reagents were maintained at 0°-4° C. The final assay mixture contained 16 mM phenol red, added enzyme and 62.5 mM sodium carbonate/bicarbonate. Its volume was kept constant at 0.8 mL. The time required for the added enzyme to lower the pH of CO2 -saturated carbonate/bicarbonate buffer from pH 9.9 to 6.8 was measured using the color change of phenol red as endpoint. T1 is the time recorded for the reaction containing no enzyme. T2 is the time recorded for the reaction containing pure CA11 enzyme from human erythrocyte, or an unknown amount in a sample. Enzyme activities (unit) were calculated using the formula:
Unit/ug=(T1 -T2)/(T2 *ug protein used in assay)
IC50 of a carbonic anhydrase inhibitor is the concentration that lowers the enzyme activity to half.

IC50	Compound
0.0053 µM	NS(=O)(=O)c1csc(C(=O)c2cccc(OC(=O)c3ccccc3)c2)c1
0.014 µM	CCCCCCC(=O)c1cc(S(N)(=O)=O)cs1 [5-(1-heptanoyl)-3-thiophene sulfonamide]
0.031 µM	CCCCCCC(O)c1cc(S(N)(=O)=O)cs1 (stereo not shown) [5-(1-hydroxy-n-heptyl)-3-thiophene sulfonamide]
0.032 µM	CCCCC(O)c1cc(S(N)(=O)=O)cs1 (stereo not shown) [5-(1-hydroxy-n-pentyl)-3-thiophene sulfonamide]
0.022 µM	CCCCC(=NO)c1cc(S(N)(=O)=O)cs1 [5-(1-pentanoyl)-3-thiophene sulfonamide, oxime]
0.027 µM	CCCCC(=O)c1cc(S(N)(=O)=O)cs1 [5-(1-pentanoyl)-3-thiophene sulfonamide]
0.018 µM	NS(=O)(=O)c1csc(C(=O)c2ccccc2F)c1 [5-(2-fluorobenzoyl)-3-thiophene sulfonamide]
0.011 µM and 0.014 µM	NS(=O)(=O)c1csc(C(=O)c2cccc(C(=O)O)c2)c1 [5-(3-carboxylbenzoyl)-3-thiophene sulfonamide]
0.012 µM	NS(=O)(=O)c1csc(C(=O)c2cccc(F)c2)c1 [5-(3-fluorobenzoyl)-3-thiophene sulfonamide]
0.0073 µM	NS(=O)(=O)c1csc(C(=O)c2cccc(C=O)c2)c1 [5-(3-formylbenzoyl)-3-thiophene sulfonamide]
0.037 µM	NS(=O)(=O)c1csc(C(O)c2cccc(O)c2)c1 (stereo not shown) [5-(3-hydroxybenzhydrol)-3-thiophene sulfonamide]
0.0067 µM	NS(=O)(=O)c1csc(C(=O)c2cccc(O)c2)c1 [5-(3-hydroxybenzoyl)-3-thiophene sulfonamide]
0.0083 µM	NS(=O)(=O)c1csc(C(=O)c2cccc(C(F)(F)F)c2)c1 [5-(3-trifluoromethylbenzoyl)-3-thiophene sulfonamide]
0.015 µM	NS(=O)(=O)c1csc(C(=O)c2cc(F)cc(F)c2)c1 [5-(3.5-difluorobenzoyl)-3-thiophene sulfonamide]
0.0087 µM	CCCCc1ccc(C(=O)c2cc(S(N)(=O)=O)cs2)cc1 [5-(4-butylbenzoyl)-3-thiophene sulfonamide]
0.0034 µM and 0.005 µM	NS(=O)(=O)c1csc(C(=O)c2ccc(C(=O)O)cc2)c1 [5-(4-carboxybenzoyl)-3-thiophene sulfonamide]
0.006 µM	CCOC(=O)c1ccc(C(=O)c2cc(S(N)(=O)=O)cs2)cc1 [5-(4-ethoxycarbonylbenzoyl)-3-thiophene sulfonamide]
0.018 µM	NS(=O)(=O)c1csc(C(O)c2ccc(C=O)cc2)c1 (stereo not shown) [5-(4-formylbenzhydrol)-3-thiophene sulfonamide]

IC50	Compound
0.013 µM	NS(=O)(=O)c1csc(C(=O)c2ccc(C=O)cc2)c1 [5-(4-formylbenzoyl)-3-thiophene sulfonamide]
0.155 µM	CN(C)Cc1cc(C(=O)c2cc(S(N)(=O)=O)cs2)cc(CN(C)C)c1O [5-(4-hydroxy-3,5-(bis-N,N-dimethylaminomethyl)benzoyl)-3-thiophene sulfonamide]
0.03 µM	CN(C)Cc1cc(C(=O)c2cc(S(N)(=O)=O)cs2)ccc1O [5-(4-hydroxy-3-(N,N-dimethylaminomethyl)benzoyl)-3-thiophene sulfonamide]
0.026 µM	NS(=O)(=O)c1csc(C(O)c2ccc(O)cc2)c1 (stereo not shown) [5-(4-hydroxybenzhydrol)3-thiophene sulfonamide]
0.017 µM	NS(=O)(=O)c1csc(C(=O)c2ccc(O)cc2)c1 [5-(4-hydroxybenzoyl)-3-thiophene sulfonamide]
0.041 µM	NS(=O)(=O)c1csc(C(O)c2ccc(CO)cc2)c1 (stereo not shown) [5-(4-hydroxymethylbenzhydrol)-3-thiophene sulfonamide]
0.017 µM	NS(=O)(=O)c1csc(C(=O)c2ccc(CO)cc2)c1 [5-(4-hydroxymethylbenzoyl)-3-thiophene sulfonamide]
0.016 µM	COc1ccc(C(O)c2cc(S(N)(=O)=O)cs2)cc1 (stereo not shown) [5-(4-methoxybenzhydrol)-3-thiophene sulfonamide]
0.031 µM	COc1ccc(C(=NO)c2cc(S(N)(=O)=O)cs2)cc1 [5-(4-methoxybenzoyl)-3-thiophene sulfonamide, oxime]
0.026 µM	COc1ccc(C(=O)c2cc(S(N)(=O)=O)cs2)cc1 [5-(4-methoxybenzoyl)-3-thiophene sulfonamide]
0.009 µM	CCC(=O)Oc1ccc(C(=O)c2cc(S(N)(=O)=O)cs2)cc1 [5-(4-propionoxybenzoyl)-3-thiophene sulfonamide]
0.24 µM	NS(=O)(=O)c1csc(C(O)c2ccccn2)c1 (stereo not shown) [5-[(hydroxy)(pyridyl)methyl]-3-thiophene sulfonamide]
0.018 µM	COC(c1cccc(C(F)(F)F)c1)c1cc(S(N)(=O)=O)cs1 (stereo not shown) [5-[(methoxy)(3-trifluoromethylphenyl)methyl]-3-thiophene sulfonamide]
0.013 µM	COC(c1ccc(CO)cc1)c1cc(S(N)(=O)=O)cs1 (stereo not shown) [5-[(methoxy)(4-hydroxymethylphenyl)]methyl-3-thiophene sulfonamide]
0.074 µM	NS(=O)(=O)c1csc(C(O)c2ccccc2)c1 (stereo not shown) [5-benzhydrol-3-thiophene sulfonamide, 5-(benzhydrol)-3-thiophene sulfonamide]
0.053 µM	NS(=O)(=O)c1csc(C(=NO)c2ccccc2)c1 [5-benzoyl-3-thiophene sulfonamide, oxime]
0.013 µM	NS(=O)(=O)c1csc(C(=O)c2ccccc2)c1 [5-benzoyl-3-thiophene sulfonamide]
0.019 µM	NS(=O)(=O)c1csc(C(=O)c2ccccn2)c1 [[5-(3-sulfonamidothienyl)][2-pyridyl] ketone]

Compound	IC50
CC(=O)Oc1ccc(C(=O)c2cc(S(N)(=O)=O)cs2)cc1 [5-(4-acetoxybenzoyl)-3-thiophene sulfonamide]	0.012 µM and 0.0036 µM
CC(=O)OCc1ccc(C(=O)c2cc(S(N)(=O)=O)cs2)cc1 [5-(4-acetoxymethylbenzoyl)-3-thiophene sulfonamide]	0.006 µM
CC(C)(C)OC(=O)c1ccc(C(=O)c2cc(S(N)(=O)=O)cs2)cc1 [5-(4-t-butoxycarbonylbenzoyl)-3-thiophene sulfonamide]	0.003 µM
CC(=O)OC(c1ccccc1)c1cc(S(N)(=O)=O)cs1 (stereo not shown) [5-[(phenyl)(acetoxy)methyl]-3-thiophene sulfonamide]	0.09 µM
